The text below walks through data of patent US20260049085A1, “CYCLIC COMPOUNDS AND METHODS OF USING SAME” (SCHRÖDINGER, INC., priority 2022, published 2026).

For assay [1], the target named is T1, full-length MALT1 protein His-MALT1(1-824) (Homo sapiens, UniProt Q9UDY8).
T1 construct: full-length MALT1 protein His-MALT1(1-824); His (N); made in house; host or cells: baculovirus-infected insect cells
T1 sequence (Q9UDY8 1-824): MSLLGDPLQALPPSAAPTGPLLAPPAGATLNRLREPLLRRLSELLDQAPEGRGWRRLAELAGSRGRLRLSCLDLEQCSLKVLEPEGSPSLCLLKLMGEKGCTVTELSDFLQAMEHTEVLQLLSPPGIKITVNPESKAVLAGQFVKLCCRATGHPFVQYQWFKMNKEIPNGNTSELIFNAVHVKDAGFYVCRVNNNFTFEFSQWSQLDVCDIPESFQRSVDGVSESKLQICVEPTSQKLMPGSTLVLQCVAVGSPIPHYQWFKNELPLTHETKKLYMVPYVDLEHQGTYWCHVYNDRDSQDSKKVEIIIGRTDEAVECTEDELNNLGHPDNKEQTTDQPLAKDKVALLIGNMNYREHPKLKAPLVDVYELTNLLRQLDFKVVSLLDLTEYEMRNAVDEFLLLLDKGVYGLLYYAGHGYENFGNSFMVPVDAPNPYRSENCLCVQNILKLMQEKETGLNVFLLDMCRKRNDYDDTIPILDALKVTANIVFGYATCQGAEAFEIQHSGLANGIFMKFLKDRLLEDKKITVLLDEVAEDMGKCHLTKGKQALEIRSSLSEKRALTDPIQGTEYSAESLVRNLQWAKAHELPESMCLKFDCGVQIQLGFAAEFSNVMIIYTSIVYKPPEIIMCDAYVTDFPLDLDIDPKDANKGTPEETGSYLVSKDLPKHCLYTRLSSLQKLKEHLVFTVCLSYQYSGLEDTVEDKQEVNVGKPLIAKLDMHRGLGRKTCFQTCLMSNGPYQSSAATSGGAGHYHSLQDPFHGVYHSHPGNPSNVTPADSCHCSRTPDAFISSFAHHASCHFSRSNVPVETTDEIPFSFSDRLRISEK
Put plainly: MALT1 protease assay (Ac-LRSR-AMC tetrapeptide substrate, fluorescence). Format: biochemical. The settings on record: 1 nM MALT1, 25 μM Ac-LRSR-AMC, 2 h pre-incubation, 8 hr incubation at RT. Summed up:
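Full-length His-MALT1(1-824) from baculovirus-infected insect cells (1 nM) was pre-incubated 2 h at RT with compounds (0.1% DMSO), then 25 μM Ac-LRSR-AMC added in 50 mM Tris pH 7.5, 600 mM sodium citrate, 1 mM DTT, 1 mM EDTA, 0.05% BSA. Fluorescence (ex 355/em 460 nm) read after 8 h at RT; IC50 by non-linear regression of % remaining activity.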

Assay [2] deals with IL10 secretion, OCI-LY10 cells. Briefly: Human IL10 secretion assay in OCI-LY10 cells (MSD). Format: cell-based. The settings on record: 24 h incubation, relative to DMSO set as 100%, read-out: IL-10 Secretion IC50. The procedure:
IL10 is one of the cytokines that are regulated via activation of NF-kB signaling. For example, in ABC-DLBCL cell lines, the activated NF-kB signaling leads to increased IL10 secretion. Inhibition of NF-kB signaling has been shown leading to decreased IL10 secretion.
OCI-LY10 cells were seeded in IMEM supplemented with 20% fetal bovine serum at 4.8×10^5 cells per 160 μL per well in 96-well V-bottom cell culture plates (coming, 3894), treated with 120 nL of 3-fold serial compound dilutions, starting at 4 mM. The final vehicle concentration was 0.075% DMSO in all wells. After a 24 h incubation, human IL-10 pre-coated plates (Meso Scale Discovery) were washed 3 times with PBST, and 50 μL culture medium was aspirated into the MSD plate and incubated at 4° C. overnight. The supernatant was then discarded, and the wells were washed 3 times with PBST. SULFO-TAG Anti-human IL-10 Antibody (50×) was diluted 50-fold according to the Meso Scale Protocol, then 25 μL of SULFO-TAG Anti-human IL-10 Antibody (1×) was added. After 2 h of incubation at RT, the supernatant was discarded, and the well was washed 3 times with PBST. 2× read buffer was added and the signal was read on an MSD Sector S600. The effect of a particular compound on IL10 secretion is shown relative to the effect of DMSO; set as 100%. IC50 values (nM) were determined using 4-parametric curve-fitting.

Usually IC50 stands for the concentration that inhibits the measured activity by half.

Regarding `Cn1cc([C@@]2(C)C[C@H](C(=O)Nc3cnc(-n4nccn4)c(Cl)c3)c3cnc4cc(F)nn4c32)cn1` (single isomer, unassigned) [Example 1], the IC50 is less than 10 nM in assay [1] and 100 to 1000 nM in assay [2].
Take `Cn1cc([C@@]2(C)C[C@H](C(=O)Nc3cnc(-n4nccn4)c(C(F)(F)F)c3)c3cnc4cc(F)nn4c32)cn1` (single isomer, unassigned) [Example 5]: the results for the concentration for half-maximal inhibition (IC50) in assay [1] and in assay [2] were less than 10 nM and 10 to 100 nM, respectively.
As to `Cn1cc([C@@]2(C)C[C@H](C(=O)Nc3cnc(-n4nccn4)c(Cl)c3)c3cnc4cc(Cl)nn4c32)cn1` (single isomer, unassigned) [Example 8], the IC50 in assay [1] was less than 10 nM; in assay [2], 10 to 100 nM.
Taken in the same sequence, the figures for `Cn1cc([C@@]2(C)C[C@H](C(=O)Nc3cnc(-n4nccn4)c(Cl)c3)c3cnc4c(F)c(F)nn4c32)cn1` (single isomer, unassigned) [Example 12] were less than 10 nM and 100 to 1000 nM.
The corresponding values for `CCn1cc([C@@]2(C)C[C@H](C(=O)Nc3cnc(-n4nccn4)c(Cl)c3)c3cnc4cc(F)nn4c32)cn1` (single isomer, unassigned) [Example 20] are less than 10 nM and 10 to 100 nM.
Taken in the same sequence, the figures for `C[C@]1(c2cnn(C(F)F)c2)C[C@H](C(=O)Nc2cnc(-n3nccn3)c(Cl)c2)c2cnc3cc(F)nn3c21` (single isomer, unassigned) [Example 24] were less than 10 nM and 10 to 100 nM.
With `C[C@]1(c2cnn(C3CC3)c2)C[C@H](C(=O)Nc2cnc(-n3nccn3)c(Cl)c2)c2cnc3cc(F)nn3c21` (single isomer, unassigned) [Example 28], the IC50 in assay [1] was less than 10 nM; in assay [2], 10 to 100 nM.
Taken in the same sequence, the figures for `Cn1ccc([C@@]2(C)C[C@H](C(=O)Nc3cnc(-n4nccn4)c(Cl)c3)c3cnc4cc(F)nn4c32)n1` (single isomer, unassigned) [Example 32] were less than 10 nM and 100 to 1000 nM.
With `Cn1cc([C@@]2(C)C[C@H](C(=O)Nc3cnc(OC(F)F)c(C#N)c3)c3cnc4cc(F)nn4c32)cn1` (single isomer, unassigned) [Example 40], the half-inhibitory concentration (IC50) in assay [1] is less than 10 nM; in assay [2] it was 10 to 100 nM.
In the case of `Cn1ccc([C@@]2(C)C[C@H](C(=O)Nc3cnc(OC(F)F)c(C#N)c3)c3cnc4cc(F)nn4c32)n1` (single isomer, unassigned) [Example 68], the 50% inhibitory concentration (IC50) in assay [1] is less than 10 nM; in assay [2] it was 100 to 1000 nM.
Take `C[C@]1(c2ccn(C(F)F)n2)C[C@H](C(=O)Nc2cnc(-n3nccn3)c(Cl)c2)c2cnc3cc(F)nn3c21` (single isomer, unassigned) [Example 88]: the figures for the IC50 in assay [1] and in assay [2] were less than 10 nM and 10 to 100 nM, respectively.
The corresponding values for `C[C@]1(c2cnn(C(F)F)c2)C[C@H](C(=O)Nc2cnc(OC(F)F)c(C#N)c2)c2cnc3cc(F)nn3c21` (single isomer, unassigned) [Example 92] are less than 10 nM and 100 to 1000 nM.
Taken in the same sequence, the figures for `C[C@]1(c2ccn(C(F)F)n2)C[C@H](C(=O)Nc2cnc(OC(F)F)c(C#N)c2)c2cnc3cc(F)nn3c21` (single isomer, unassigned) [Example 110] were less than 10 nM and 10 to 100 nM.
Taken in the same sequence, the figures for `CC1(c2ccn(C(F)F)n2)CC(C(=O)Nc2cnc(-c3ncc(F)cn3)c(C(F)(F)F)c2)c2cnc3cc(F)nn3c21` (single isomer, unassigned) [Example 116] were less than 10 nM and 100 to 1000 nM.
On to `CC(F)(F)n1cc([C@@]2(C)C[C@H](C(=O)Nc3cnc(-n4nccn4)c(Cl)c3)c3cnc4cc(F)nn4c32)cn1` (single isomer, unassigned) [Example 120], for which the half-inhibitory concentration (IC50) in assay [1] is less than 10 nM; in assay [2], 10 to 100 nM.
With `C[C@]1(c2ccn(C(F)F)n2)C[C@H](C(=O)Nc2cnc(-n3nccn3)c(C(F)(F)F)c2)c2cnc3cc(F)nn3c21` (single isomer, unassigned) [Example 124], the IC50 in assay [1] is less than 10 nM; in assay [2] it was 10 to 100 nM.
The corresponding values for `C[C@]1(c2ccn(C(F)F)n2)C[C@H](C(=O)Nc2cnc(-c3ncccn3)c(C(F)(F)F)c2)c2cnc3cc(F)nn3c21` (single isomer, unassigned) [Example 136] are less than 10 nM and 10 to 100 nM.
Turning to `C[C@]1(c2ccn(C(F)F)n2)C[C@H](C(=O)Nc2cnc(-c3ncccn3)c(Cl)c2)c2cnc3cc(F)nn3c21` (single isomer, unassigned) [Example 140], the results for the IC50 in assay [1] and in assay [2] were less than 10 nM and 10 to 100 nM, respectively.
With `Cn1ccc([C@@]2(C)C[C@H](C(=O)Nc3cnc(-n4nccn4)c(C(F)(F)F)c3)c3cnc4cc(F)nn4c32)n1` (single isomer, unassigned) [Example 144], the results for the IC50 in assay [1] and in assay [2] were less than 10 nM and 100 to 1000 nM, respectively.
Taken in the same sequence, the figures for `C[C@]1(c2cnn(C(F)F)c2)C[C@H](C(=O)Nc2cnc(-c3ncccn3)c(C(F)(F)F)c2)c2cnc3cc(F)nn3c21` (single isomer, unassigned) [Example 148] were 10 to 100 nM and 100 to 1000 nM.
`C[C@]1(c2cnn(C(F)F)c2)C[C@H](C(=O)Nc2cnc(-c3ncc(F)cn3)c(Cl)c2)c2cnc3cc(F)nn3c21` [Example 134, (6S,8R)—N-(5-chloro-6-(5-fluoropyrimidin-2-yl)pyridin-3-yl)-8-(1-(difluoromethyl)-1H-pyrazol-4-yl)-2-fluoro-8-methyl-7,8-dihydro-6H-cyclopenta[e]pyrazolo[1,5-a]pyrimidine-6-carboxamide] came in with a concentration for half-maximal inhibition (IC50) in assay [1] of 10 to 100 nM.
